The record followed here is paper PMC4549708, “Inhibition of neuraminidase by Ganoderma triterpenoids and implications for neuraminidase inhibitor design” (Scientific Reports, 2015).

The target of one data set is NA (H1N1,09) (Influenza A virus, UniProt C3W5S3). As to the kind of experiment: biochemical. The conditions noted are these: for Inhibition rate (%) NA(H1N1,09) / inhibition at 200 µM: 200 μM of each compound, n = 3, means ± standard deviation; for inhibition at 200 µM: read-out: Inhibition rate (%) NA(H1N1,09).
The next data set concerns the target NA (H5N1) (Influenza A virus, UniProt K0C216). As to the kind of experiment: biochemical. The conditions noted are these: for Inhibition rate (%) NA (H5N1): 200 µM; for inhibition at 200 µM: read-out: Inhibition rate (%) NA (H5N1).
The next data set relates to NA (H7N9). It is filed as biochemical. The settings on record: 200 µM.
The nature of a further data set: in vitro. The conditions noted are these: human.

With `C/C(=C\[C@@H](O)C[C@@H](C)[C@H]1CC(=O)[C@@]2(C)C3=C(C(=O)C[C@]12C)[C@@]1(C)CC[C@H](O)C(C)(C)[C@@H]1CC3=O)C(=O)O` [Compound 22, Ganoderic acid Zeta], the “Inhibition rate (%) NA(H1N1,09)” value at NA (H1N1,09) turned out to be 35.9 ± 5.3%. Moreover, the “Inhibition rate (%) NA (H5N1)” value at NA (H5N1) is on record as 0.0%. Moreover, the “Inhibition rate (%) NA(H7N9)” value in the data set on NA (H7N9) is 17.7 ± 2.4%. The CC50 in the data set on MCF7 cells was more than 200 µM.
Regarding `CC(CC(=O)C[C@@H](C)[C@H]1CC(=O)[C@@]2(C)C3=C(C(=O)[C@@H](O)[C@]12C)[C@@]1(C)CC[C@H](O)C(C)(C)[C@@H]1CC3=O)C(=O)O` (some centres unmarked) [Compound 18, Ganoderic acid C6], the inhibition at 200 µM on NA (H1N1,09) was 17.8 ± 1.2%; at NA (H5N1), 15.6 ± 22.3%. In addition, the “Inhibition rate (%) NA(H7N9)” value in the data set on NA (H7N9) worked out at 25.7 ± 1.3%. The CC50 in “in vitro” was more than 200 µM.
On the same counts, the results for `C/C(=C\[C@@H](O)C[C@@H](C)[C@H]1CC(=O)[C@@]2(C)C3=C(C(=O)C[C@]12C)[C@@]1(C)CCC(=O)C(C)(C)[C@@H]1C[C@@H]3O)C(=O)O` [Compound 23, Ganoderic acid LM2] are 40.9 ± 6.2%, 67.1 ± 5.2%, 12.7 ± 9.6% and more than 200 µM.
On to `C/C(=C\C(=O)CC(C)C(=O)O)[C@H]1CC(=O)[C@@]2(C)C3=C(C(=O)C[C@]12C)[C@@]1(C)CCC(=O)C(C)(C)[C@@H]1CC3=O` (some centres unmarked) [Compound 15, Ganoderenic acid F], for which the inhibition at 200 µM on NA (H1N1,09) is 53.1 ± 1.6%; on NA (H5N1) it was 62.8 ± 4%. In the data set with NA (H7N9), the “Inhibition rate (%) NA(H7N9)” value is recorded as 34.2 ± 4.7%. In the data set “in vitro”, this compound came in with a CC50 of 111 ± 17.9 µM.
For the compound `CC(=O)O[C@@H]1C(=O)C2=C(C(=O)C[C@H]3C(C)(C)[C@@H](O)CC[C@]23C)[C@]2(C)C(=O)C[C@H]([C@H](C)CC(=O)CC(C)C(=O)O)[C@@]12C` (some centres unmarked) [Compound 13, Ganoderic acid H], the inhibition at 200 µM was 35 ± 4.5% on NA (H1N1,09) and 64.1 ± 4.5% at NA (H5N1). Moreover, in the data set with NA (H7N9), the “Inhibition rate (%) NA(H7N9)” value turned out to be 27.2 ± 3.2%. In “in vitro”, this compound yielded a CC50 of more than 200 µM.
Regarding `C[C@H](CC(=O)C[C@@H](C)[C@H]1C[C@H](O)[C@@]2(C)C3=C(C(=O)C[C@]12C)[C@@]1(C)CC[C@H](O)C(C)(C)[C@@H]1C[C@@H]3O)C(=O)O` [Compound 9, Ganoderic acid C2], the inhibition at 200 µM came out at 32.4 ± 4.5% on NA (H1N1,09) and 60.8 ± 4.3% at NA (H5N1). Also, the “Inhibition rate (%) NA(H7N9)” value in the data set with NA (H7N9) turned out to be 27.5 ± 2.3%. The same compound yielded a CC50 in the data set “in vitro” of more than 200 µM.
For `C[C@H](CCC=C(CO)CO)[C@H]1CC[C@@]2(C)C3=CC[C@H]4C(C)(C)C(=O)CC[C@]4(C)C3=CC[C@]12C` [Compound 27, Ganoderiol F], the inhibition at 200 µM amounted to 52.9 ± 2% at NA (H1N1,09) and 33.6 ± 12.1% on NA (H5N1). Besides, the “Inhibition rate (%) NA(H7N9)” value in the data set with NA (H7N9) was determined as 29.5 ± 4.3%. The CC50 in the data set “in vitro” was more than 200 µM.
On the same counts, the results for `CC(=O)O[C@@H]1C(=O)C2=C([C@@H](O)C[C@H]3C(C)(C)[C@@H](O)CC[C@]23C)[C@]2(C)C(=O)C[C@H]([C@H](C)CC(=O)CC(C)C(=O)O)[C@@]12C` (some centres unmarked) [Compound 11, Ganoderic acid K] are 28.8 ± 2%, 57.7 ± 10.9%, 28.5 ± 1.9% and more than 200 µM.
Consider `C/C(=C/CC[C@@H](C)[C@H]1CC[C@@]2(C)C3=CC[C@H]4C(C)(C)C(=O)CC[C@]4(C)C3=CC[C@]12C)C(=O)O` [Compound 5, Ganoderic acid S], for which the values for the inhibition at 200 µM on NA (H1N1,09) and at NA (H5N1) were 69.4 ± 2.3% and 86.7 ± 0.5%, respectively. In addition, the IC50 on NA (H1N1,09) (in vitro NA inhibition assay (n = 3)) stood at 80.5 ± 24.9 µM. Moreover, in the data set on NA (H7N9), the “Inhibition rate (%) NA(H7N9)” value worked out at 31.9 ± 2.3%. Moreover, the CC50 in “in vitro” is 80.9 ± 6.8 µM.
Regarding `C[C@H](CC(=O)C[C@@H](C)[C@H]1C[C@H](O)[C@@]2(C)C3=C(C(=O)C[C@]12C)[C@@]1(C)CCC(=O)C(C)(C)[C@@H]1C[C@@H]3O)C(=O)O` [Compound 7, Ganoderic acid A], the figures for the inhibition at 200 µM on NA (H1N1,09) and at NA (H5N1) were 5 ± 5.4% and 31.4 ± 7.3%, respectively. The “Inhibition rate (%) NA(H7N9)” value in the data set on NA (H7N9) is recorded as 6.3 ± 2.2%. The compound also came in with a CC50 in “in vitro” of more than 200 µM.
On the same counts, the results for `CC(=O)O[C@@H]1C(=O)C2=C(C(=O)C[C@H]3C(C)(C)C(=O)CC[C@]23C)[C@]2(C)C(=O)C[C@H]([C@H](C)CC(=O)CC(C)C(=O)O)[C@@]12C` (some centres unmarked) [Compound 24, Ganoderic acid F] are 12.9 ± 11.4%, 48.6 ± 7.4%, 14.8 ± 2.6% and more than 200 µM.
On the same counts, the results for `CC(CC(=O)C[C@@H](C)[C@H]1CC(=O)[C@@]2(C)C3=C(C(=O)C[C@]12C)[C@@]1(C)CC[C@H](O)C(C)(C)[C@@H]1CC3=O)C(=O)O` (some centres unmarked) [Compound 10, Ganoderic acid AM1] are 28.3 ± 6.2%, 75.2 ± 2.3%, 14.1 ± 5.1% and more than 200 µM.
`C/C(=C\C(=O)CC(C)C(=O)O)[C@H]1CC(=O)[C@@]2(C)C3=C(C(=O)C[C@]12C)[C@@]1(C)CC[C@H](O)C(C)(C)[C@@H]1CC3=O` (some centres unmarked) [Compound 12, Ganoderenic acid H]: the inhibition at 200 µM at NA (H1N1,09) turned out to be 58 ± 3%; at NA (H5N1) it was 77.7 ± 3.9%. The “Inhibition rate (%) NA(H7N9)” value with NA (H7N9) came out at 38.6 ± 6.2%. This compound also had a CC50 in the data set “in vitro” of more than 200 µM.
For the compound `C/C(C=O)=C\CC[C@@H](C)[C@H]1CC[C@@]2(C)C3=CC[C@H]4C(C)(C)[C@@H](O)CC[C@]4(C)C3=CC[C@]12C` [Compound 30, Lucialdehyde A], on NA (H1N1,09), the “Inhibition rate (%) NA(H1N1,09)” value came out at 57.6 ± 1.7%. At NA (H5N1), inhibition was half-maximal at 164 ± 18 µM (IC50) and the “Inhibition rate (%) NA (H5N1)” value came to 67.1 ± 5.7%. The “Inhibition rate (%) NA(H7N9)” value in the data set with NA (H7N9) stood at 24.5 ± 1.6%. Moreover, in the data set on MCF7 cells, the CC50 was 34.7 ± 5.5 µM.
Take `C/C(C=O)=C\CC[C@@H](C)[C@H]1CC[C@@]2(C)C3=C(CC[C@]12C)[C@@]1(C)CCC(=O)C(C)(C)[C@@H]1CC3=O` [Compound 31, Lucialdehyde B]: the inhibition at 200 µM on NA (H1N1,09) is 51.4 ± 2.5%; on NA (H5N1), 86.7 ± 0.8%. In addition, the “Inhibition rate (%) NA(H7N9)” value with NA (H7N9) is recorded as 30.4 ± 3.5%. Further, in “in vitro”, the CC50 worked out at 7.1 ± 0.3 µM.
Regarding `C[C@H](CC[C@H](O)C(C)(C)O)[C@H]1CC[C@@]2(C)C3=CC[C@H]4C(C)(C)C(=O)CC[C@]4(C)C3=CC[C@]12C` [Compound 28, Ganodermanondiol], the inhibition at 200 µM at NA (H5N1) was 87.9 ± 1.8%. In the data set on NA (H7N9), the “Inhibition rate (%) NA(H7N9)” value is 24.3 ± 1.7%. Further, in the data set “in vitro”, the CC50 stood at 64.9 ± 10 µM.
Take `C[C@H](CC[C@H](O)[C@](C)(O)CO)[C@H]1CC[C@@]2(C)C3=CC[C@H]4C(C)(C)C(=O)CC[C@]4(C)C3=CC[C@]12C` [Compound 29, Ganodermanontriol]: the values for the inhibition at 200 µM on NA (H1N1,09) and on NA (H5N1) were 35.3 ± 5.2% and 60.5 ± 6.8%, respectively. Besides, in the data set on NA (H7N9), the “Inhibition rate (%) NA(H7N9)” value was 10.3 ± 3.5%. In “in vitro”, this compound displayed a CC50 of more than 200 µM.
Regarding `CC(CC(=O)C[C@@H](C)[C@H]1C[C@H](O)[C@@]2(C)C3=C(C(=O)C[C@]12C)[C@@]1(C)CCC(=O)C(C)(C)[C@@H]1CC3)C(=O)O` (some centres unmarked) [Compound 21, Ganolucidic acid A], the inhibition at 200 µM on NA (H1N1,09) is 19.4 ± 2.7%; on NA (H5N1), 49.8 ± 7.7%. For the same compound, the “Inhibition rate (%) NA(H7N9)” value with NA (H7N9) is given as 16.7 ± 3.4%. In the data set “in vitro”, this compound registered a CC50 of more than 200 µM.
On the same counts, the results for `C/C(=C\CC[C@@H](C)[C@H]1CC[C@@]2(C)C3=C(CC[C@]12C)[C@@]1(C)CCC(=O)C(C)(C)[C@@H]1CC3=O)C(=O)O` [Compound 20, Ganoderic acid DM] are 50.4 ± 1.5%, 55.2 ± 0.7%, 29.4 ± 3.8% and more than 200 µM.
On the same counts, the results for `C/C(=C\C(=O)CC(C)C(=O)O)[C@H]1C[C@H](O)[C@@]2(C)C3=C(C(=O)C[C@]12C)[C@@]1(C)CCC(=O)C(C)(C)[C@@H]1C[C@@H]3O` (some centres unmarked) [Compound 8, Ganoderenic acid A] are 35.3 ± 3.7%, 35.9 ± 7.7%, 23.3 ± 3.1% and more than 200 µM.
As to `C/C(=C\CC[C@@H](C)[C@H]1CC[C@@]2(C)C3=CC[C@H]4C(C)(C)[C@@H](O)CC[C@]4(C)C3=CC[C@]12C)C(=O)O` [Compound 6, Ganoderic acid Y], the figures for the inhibition at 200 µM on NA (H1N1,09) and at NA (H5N1) were 63 ± 2.5% and 78.2 ± 3.2%, respectively. Further, the “Inhibition rate (%) NA(H7N9)” value in the data set on NA (H7N9) came to 17.8 ± 1.5%. In “in vitro”, this compound had a CC50 of 18 ± 1.3 µM.
On the same counts, the results for `C/C(=C\CC[C@@H](C)[C@H]1CC[C@@]2(C)C3=CC[C@H]4C(C)(C)[C@@H](O)CC[C@]4(C)C3=CC[C@]12C)CO` [Compound 26, Ganoderol B] are 51 ± 2.6%, 71.6 ± 2.1%, 21.8 ± 3.5% and more than 200 µM.
For the compound `CC(CC(=O)C[C@@H](C)[C@H]1CC(=O)[C@@]2(C)C3=C(C(=O)C[C@]12C)[C@@]1(C)CC[C@H](O)C(C)(C)[C@@H]1C[C@@H]3O)C(=O)O` (some centres unmarked) [Compound 14, Ganoderic acid B], the inhibition at 200 µM on NA (H1N1,09) worked out at 6.9 ± 6.8%; on NA (H5N1) it was 3 ± 1%. Moreover, the “Inhibition rate (%) NA(H7N9)” value with NA (H7N9) is listed as 5.5 ± 0.4%. In the data set “in vitro”, the CC50 was more than 200 µM.
As to `C[C@H](CC(=O)C[C@@H](C)[C@H]1CC(=O)[C@@]2(C)C3=C(C(=O)C[C@]12C)[C@@]1(C)CCC(=O)C(C)(C)[C@@H]1C[C@@H]3O)C(=O)O` [Compound 19, Ganoderic acid C1], the inhibition at 200 µM was 21.1 ± 4.1% on NA (H1N1,09) and 43.3 ± 6.1% at NA (H5N1). Besides, the “Inhibition rate (%) NA(H7N9)” value with NA (H7N9) worked out at 26.2 ± 4.1%. In the data set “in vitro”, the CC50 is more than 200 µM.
On the same counts, the results for `C/C(=C\CC[C@@H](C)[C@H]1CC[C@@]2(C)C3=CC[C@H]4C(C)(C)C(=O)CC[C@]4(C)C3=CC[C@]12C)CO` [Compound 25, Ganoderol A] are 48.3 ± 2.2%, 77.1 ± 0.4%, 15.9 ± 3.7% and 20.4 ± 0.9 µM.

As usually defined, the inhibition is the change of the read-out against control, counted positive when it falls. Usually IC50 stands for the midpoint of a concentration-inhibition curve.
